{"source": "patent US20260257992A1", "about": "“AGONISTS OF SMALL HETERODIMER PARTNER FOR CANCER THERAPY” (THE BOARD OF TRUSTEES OF THE UNIVERSITY OF ILLINOIS, priority 2023, published 2026)", "assay_type_in_all_cases": "cell-based, mouse", "key": {"[1]": {"test_system": "Treg expansion", "assay": "Treg expansion in co-culture with compound-treated BMDMs (macrophages)", "parameters": "key to Treg expansion macrophages: ✓: using strict cutoffs with respect to DSHN for passing each metric; X: using strict cutoffs with respect to DSHN for passing each metric", "conditions": "for Treg expansion after BMDM pretreatment and washout: BMDMs pretreated, washed before co-culture with T cells; for Treg expansion, co-culture with treated BMDMs: dose response", "method": "Preparation of Bone Marrow-Derived Macrophages (BMDMs) and Dendritic Cells. Bone marrow cells were collected from mouse tibia and femur. Cells were passed through 70-micron cell strainer and subsequently cultured 10 mL complete RPMI media supplemented with 20 ng/mL of recombinant murine M-CSF (576406; BioLegend, 315-02 PeproTech). On day 3, additional 5 ml of the complete media was added. On day 7, media was replaced. BMDMs were harvested on day 10 using cell stripper solution for further experiments. Dendritic cells were isolated from the spleens of wildtype, using mouse CD11c UltraPure MicroBeads (130-125-835; Miltenyi Biotec) according to the manufacturer's instructions) and cultured in RPMI medium supplemented with 10% heat-inactivated charcoal-stripped FBS, 50 μM β-mercaptoethanol, 1% sodium pyruvate, 1% nonessential amino acids, % penicillin/streptomycin, and 1% Glutamax.\nIn vitro Treg expansion assays. T cells were cultured in RPMI medium supplemented with 10% heat-inactivated charcoal-stripped FBS, 50 μM β-mercaptoethanol (Gibco), 1% sodium pyruvate, 1% nonessential amino acids, % penicillin/streptomycin, and 1% Glutamax (Gibco). Naïve CD4^+ T cells were isolated from the spleens of wildtype and OT-II, using Naive CD4^+ T Cell Isolation Kit (Miltenyi Biotec according to the manufacturer's instructions). T cells were labeled with the vital dye CFSE (BioLegend) or Cell Trace Violet (ThermoFisher) according to the manufacturer's instructions. For wildtype Treg expansion in presence of antigen presenting cells, naïve CD4^+ T cells were co-cultured with APC at indicated ratio in the presence of 0.5 μg/mL (anti-CD3 BioLegend), 0.5 ng/mL TGFβ (BioLegend) and 0.5 ng/ml IL-2 (BioLegend) for 72 hr at 37° C. For OT-II Treg expansion, OTII naïve CD4^+ T cells from OT-II mice were activated by antigen presentation by culturing BMDMs were primed with 10 μg/mL OVA323-339 (Bachem) and 0.5 μg/mL LPS (Sigma). naïve CD4+ T cells from OTII mice were co-cultured with primed APC at indicated ratio for 72 hrs. After 72 hrs of culture, cells were transferred into V-bottom plates (BD), pelleted by centrifugation and incubated with antibody staining mix containing Ghost Dye™ Red 780 viability dye diluted in PBS for 15 minutes at 4° C. Cell surface antigens were stained for 15 minutes at 4° C. with an antibody staining mix containing Ghost Dye™ Red 780 viability dye diluted in PBS. Cells were fixed and permeabilized with BD Cytofix/Cytoperm™ for 20 minutes at 4° C. Antibodies against intracellular antigens were diluted in 1×BD Perm/Wash™ buffer and cells were stained for 30 minutes at 4° C. Cytometry data were acquired on a LSRII, Fortessa, Symphony A1 (Becton Dickinson, NJ). Foxp3 induction was assessed by expression of FOXP3."}, "[2]": {"test_system": "BMDM viability", "assay": "Resazurin cell viability assay in BMDMs", "conditions": "increasing doses up to 100 μM", "method": "(§1) In order to better assess the potential cellular toxicity of DSHN-OMe, we treated BMDMs with increasing doses and measured their ability to reduce resazurin to resorufin (similar to the MTT viability assay).\nResazurin cell viability assay. 20,000 cells were seeded into 96 well f-bottom, black plates (Corning Costar) and cell viability was measured using 100 μL resazurin per well at 0.3 mg/mL (Acros Organics). The fluorescence signal was quantified by plate reader (560 nm excitation/590 nm emission) at 2-3 h."}, "[3]": {"test_system": "CD8+ T cell expansion", "assay": "Suppressiveness of T cells expanded with treated BMDMs (secondary CD8+ expansion)", "conditions": "BMDMs pretreated with compound", "source_text": "FIG. 6A-6F. […] (A) DSHN-OMe has minimal effects on BMDM viability (N=4-6/group). (B) DSHN-OMe treated BMDMs reduce Treg expansion in a dose related manner, with an increased biological maximum compared to DSHN (data normalized to mean vehicle, which was set at 100%. Non-linear three parameter regression shown, N=4/point). […] Different letters denote P<0.05. […] The percentage of divided CD8+ T cells in the second round was quantified. (N=3-5/group, different letters indicating statistical significance, 1-way ANOVA followed by Tukey). […] Vehicle (DMSO) treated BMDMs are indicated on the right for comparison. (F) Cellular uptake of DSHN-OMe greatly exceeds that of DSHN though time. RAW264.7 cells were treated with 50 µM of vehicle (DMSO) or indicated compound for 4 h, 8 h or 24 h. Compound was washed off, cells were lysed and resulting DSHN and DSHN-OMe contents were assessed by LC-MS/MS. Note different scales on y-axes. For DSHN treated cells, no DSHN-OMe was detected (not shown). For DSHN-OMe treated cells, some DSHN was detected. ND signifies when compounds were not detected. (N=3/group. 4 h timepoint was run in an experiment independent of the 8 and 24 hr timepoints).\nas §1"}, "[4]": {"test_system": "inflammasome associated genes", "assay": "Inflammasome associated gene expression in BMDMs (LPS, nigericin)", "method": "FIG. 8A-8D. DSHN-OMe attenuates induction of inflammasome associated genes when BMDMs are treated with both LPS and nigericin, not LPS alone. * indicates P<0.05 when comparing to DMSO.\nInflammasome activation, RNA extraction, quantitative real PCR. When comparing inflammasome responses, BMDMs were treated with 500 ng/mL LPS for 4 h 37° C. in complete RPMI 1640. After 4 hr priming, 15 μM Nigericin was added for 45 mins at 37° C. Next, media was removed, washed with PBS and inflammasome activation was assessed using qPCR or inflammasome caspase-1 activity was measured using Caspase-Glo® 1 inflammasome assay kit (G9951; Promega) according to manufacturer's instructions."}}}
{"compound": "CCN(CC)S(=O)(=O)c1cccc2cc(C(=O)OC)c(O)cc12", "note": "[DSHN-OMe, Methyl 5-(N,N-diethylsulfamoyl)-3-hydroxy-2-naphthoate]", "values": [{"measurement": "Treg expansion after BMDM pretreatment and washout", "setting": "[1]", "result": "decreased Treg expansion"}, {"measurement": "Treg expansion, co-culture with treated BMDMs", "setting": "[1]", "result": "elicited a reduction in Treg expansion with a lower dose, and had a larger biological maximum"}, {"measurement": "Treg expansion macrophages", "setting": "[1]; pass/fail with respect to DSHN", "result": "✓"}, {"measurement": "BMDM viability (resazurin reduction)", "setting": "[2]", "result": "no significant difference was observed in viability up to 100 μM"}, {"measurement": "Suppressiveness of expanded T cells towards second set of naïve T cells (CD8+ expansion)", "setting": "[3]", "result": "less suppressive"}, {"measurement": "Expression of inflammasome associated genes, priming and activation signal", "setting": "[4]", "result": "able to blunt the expression of inflammasome associated genes"}]}
{"compound": "CCN(CC)S(=O)(=O)c1cccc2cc(C(=O)O)c(O)cc12", "note": "[DSHN, reference compound]", "values": [{"measurement": "Treg expansion after BMDM pretreatment and washout", "setting": "[1]", "result": "not effective at reducing Treg expansion"}, {"measurement": "Treg expansion, co-culture with treated BMDMs", "setting": "[1]", "result": "reduced subsequent Treg expansion in a dose related manner"}, {"measurement": "BMDM viability (resazurin reduction)", "setting": "[2]", "result": "no significant difference was observed in viability up to 100 μM"}, {"measurement": "Suppressiveness of expanded T cells towards second set of naïve T cells (CD8+ expansion)", "setting": "[3]", "result": "less suppressive"}, {"measurement": "Expression of inflammasome associated genes, priming and activation signal", "setting": "[4]", "result": "able to blunt the expression of inflammasome associated genes"}]}
